Data taken from PMC11695783 (Frontiers in Pharmacology, 2024).
“And” between values parts separate entries of the source, which are not always exact repeats. Equal values may be shown once.

Assay: Pharmacokinetic studies in mice (intravenous and intramuscular, plasma, HPLC-MS/MS)
Assay type: in vivo, BALB/c mice
Parameters: AUClast / AUCall / AUCINF_obs / AUCINF_pred / AUCINFobs: concentration or dose not given beside the values; Tlast / Clast / AUMClast / AUMCINF_obs / AUMCINF_pred / Lambda_z / HL_Lambda_z / Cl_obs / Cl_pred / Cl_F_obs / Tlag / Cl_F_pred: unit not given here
Conditions: IV; for plasma concentration: individual mice 1-8; for plasma concentration, AV: average of mice
Method: Pharmacokinetic experimental procedures of compound 16C were measured according to previous reports with some modifications ([Wang et al., 2022]). In brief, BALB/c mice were divided into two groups of eight mice each; one group was injected intravenously and the other was injected intramuscularly with compound 16C at a dose of 10 mg/kg. The dose was based on previous studies of novel pleuromutilin derivatives ([Jin et al., 2019]; [Wang et al., 2022]). Meanwhile, the dose of tiamulin approved by the European Union for intramuscular administration is 10–20 mg/kg ([EMA, 1999]). The volume of the injection was 0.1 mL/10 g. The compound 16C formulation was a filtered solution in 5% DMSO, 5% Tween-80, and 90% normal saline. Blood was obtained from eight mice via the ocular venous plexus at 0.083, 0.167, 0.25, 0.334, 0.5, 0.75, 1, 1.5, 2, 3, 4, 6, 8, and 12 h following tail intravenous or thigh Intramuscular injection. A glass capillary with a diameter of 0.3 mm was inserted into the outer canthus of the mouse, and 200 μL blood was collected using a 1.5 mL anticoagulant centrifuge tube. The blood was centrifuged at 3,000 rpm for 10 min to obtain plasma. 100 μL of plasma was aspirated for drug concentration detection, and eight parallel samples from different mice were obtained at each time point.
All pharmacokinetic experimental samples and method validation samples were added with 4 times the volume of acetonitrile and shaken for 1 min, centrifuged at high speed at 13,000× g for 10 min, and the supernatants were taken and filtered to detect the drug concentration. Some samples with high concentrations were diluted to the linear range prior to analysis.
The extracted samples were analyzed using a high-performance liquid chromatography-tandem mass spectrometry (HPLC-MS/MS) system (Agilent, Santa Clara, CA, United States) 1200 HPLC and Applied Biosystems (Waltham, MA, United States) API 4000 mass spectrometer). HPLC-MS/MS analysis using a Zorbax Eclipse XDB-C18 (4.6 × 50 mm, 3.5 μm) column (Agilent). The mobile phase A (acetonitrile) and B (water) were applied as a gradient as follows: 0–3 min: 15%–95% A and maintain from 3 min to 5 min at 95% A. 5–5.1 min: 95%–15% A and maintain from 5.1 to 10 min at 15% A. Flow rate: 500 μL/min; column temperature: 30°C and injection volume: 4 μL. The electrospray ionization (ESI) source of the mass spectrometer was operated in […], with the following ion source parameters: ion spray voltage 4,500 V, collision gas 7 psi, ion source gas 1 55 psi, ion source gas 2 40 psi, curtain gas 20 psi, source temperature 600°C. The precursor ion m/z of Compound 16C was 633.3, and the product ions m/z were 272.0 (quantifier) 286.9 and 313.0. Declustering potentials (DP) were 140, 140, and 144 V, respectively; entrance potential (EP) was 10 V; collision energy (CE) was 55, 46, and 15 V, respectively; and collision cell exit potential (CXP) was 14 V.
[…] Pharmacokinetic parameters include time to maximum concentration (Tmax), maximum concentration (Cmax), the area under the plasma concentration–time curve (AUC0-∞), clearance rate (CL), the apparent volume of distribution (Vd), bioavailability (F), elimination half-life (T1/2kel) and absorption half-life (T1/2ka).

In the case of `C=C[C@]1(C)C[C@@H](OC(=O)CSc2ccc(NC(=O)Cc3ccc([N+](=O)[O-])cc3)cc2)[C@]2(C)[C@H](C)CC[C@]3(CCC(=O)[C@H]32)[C@@H](C)[C@@H]1O`, the plasma concentration (0.083h) is reported as 4.18 ng/mL and 5.51 ng/mL and 3.62 ng/mL and 4.5 ng/mL and 6.77 ng/mL and 4.82 ng/mL and 6.27 ng/mL and 4.14 ng/mL, the “plasma concentration, AV” value (0.17h) is reported as 2.954 ng/mL and the plasma concentration (0.17h) is reported as 2.24 ng/mL and 3.08 ng/mL and 2.67 ng/mL and 1.93 ng/mL and 4.06 ng/mL and 3.1 ng/mL and 3.5 ng/mL and 3.05 ng/mL. The “plasma concentration, AV” value (0.25h) was 1.9525 ng/mL, the plasma concentration (0.25h) was 1.53 ng/mL and 1.91 ng/mL and 1.97 ng/mL and 1.44 ng/mL and 2.52 ng/mL and 1.83 ng/mL and 2.17 ng/mL and 2.25 ng/mL and the “plasma concentration, AV” value (0.33h) was 1.413 ng/mL. The plasma concentration (0.33h) was 1.05 ng/mL and 1.59 ng/mL and 1.43 ng/mL and 0.752 ng/mL and 1.83 ng/mL and 1.19 ng/mL and 1.81 ng/mL and 1.65 ng/mL, the “plasma concentration, AV” value (0.5h) was 0.9296 ng/mL and the plasma concentration (0.5h) was 0.563 ng/mL and 0.856 ng/mL and 1.02 ng/mL and 0.564 ng/mL and 1.49 ng/mL and 0.788 ng/mL and 0.986 ng/mL and 1.17 ng/mL. The “plasma concentration, AV” value (0.75h) was 0.4375 ng/mL, the plasma concentration (0.75h) was 0.295 ng/mL and 0.454 ng/mL and 0.34 ng/mL and 0.281 ng/mL and the “plasma concentration, AV” value (1h) was 0.1263 ng/mL. For the same compound, the “plasma concentration, AV” value (1.5h) was 0.0633 ng/mL, the “plasma concentration, AV” value (2h) was 0.03673 ng/mL and the “plasma concentration, AV” value (3h) was 0.01748 ng/mL. For the same compound, the “plasma concentration, AV” value (4h) was 0.01406 ng/mL, the “plasma concentration, AV” value (6h) was 0.005976 ng/mL and the “plasma concentration, AV” value (8h) was 0.004256 ng/mL. For the same compound, the “plasma concentration, AV” value (12h) was 0.002617 ng/mL, the AUCINF_obs (individual mice) was 1731 and 1454.8 and 1871.31 and 1501.72 and 1496.6 and 2594.18 and 1738.12 and 2317.09 and the AUCINF_pred (individual mice) was 1730.96 and 1454.56 and 1871.3 and 1501.69 and 1496.6 and 2594.16 and 1737.96 and 2317.08. The AUC_%Back_Ext_obs (individual mice) was 23.2101% and 33.5458% and 33.5029% and 23.3787% and 40.4621% and 28.4699% and 29.0426% and 30.8151%, the AUC_%Back_Ext_pred (individual mice) was 23.2107% and 33.5513% and 33.5032% and 23.3791% and 40.462% and 28.47% and 29.0454% and 30.8152% and the AUC_%Extrap_obs (individual mice) was 1.0811% and 0.9306% and 0.1046% and 0.8821% and 0.3771% and 0.7545% and 1.237% and 1.2773%. The AUC_%Extrap_pred (individual mice) was 1.0785% and 0.9144% and 0.1039% and 0.8804% and 0.3773% and 0.754% and 1.2276% and 1.277%, the AUCall (individual mice) was 1712.29 and 1441.26 and 1869.35 and 1488.47 and 1490.96 and 2574.6 and 1716.62 and 2287.49 and the AUClast (individual mice) was 1712.29 and 1441.26 and 1869.35 and 1488.47 and 1490.96 and 2574.6 and 1716.62 and 2287.49. For the same compound, the AUMCINF_obs (individual mice) was 945.518 and 756.201 and 591.051 and 764.612 and 715.375 and 1415.53 and 1084.7 and 1445.93, the AUMCINF_pred (individual mice) was 944.931 and 753.432 and 590.916 and 764.278 and 715.413 and 1415.38 and 1082.77 and 1445.86 and the AUMC_%Extrap_obs (individual mice) was 25.4794% and 20.837% and 3.3902% and 21.6397% and 12.7428% and 15.3656% and 22.9491% and 23.7174%. For the same compound, the AUMC_%Extrap_pred (individual mice) was 25.4331% and 20.546% and 3.368% and 21.6055% and 12.7474% and 15.3562% and 22.812% and 23.7133%, the AUMClast (individual mice) was 704.605 and 598.632 and 571.014 and 599.152 and 624.216 and 1198.03 and 835.77 and 1103 and the C0 (individual mice) was 5541.15 and 7579.63 and 9597.07 and 4839.8 and 10091.7 and 11026.6 and 7343.77 and 10935.2. For the same compound, the Cl_obs (individual mice) was 0.0069 and 0.0053 and 0.0067 and 0.0039 and 0.0058 and 4315.76, the Cl_pred (individual mice) was 0.0069 and 0.0053 and 0.0067 and 0.0039 and 0.0058 and 4315.77 and the Clast (individual mice) was 3.84 and 3.72 and 0.875 and 2.95 and 1.36 and 6.29 and 6.01 and 8.25. The Cmax (individual mice) was 4140 and 4180 and 5510 and 3620 and 4500 and 6770 and 4820 and 6270, the HL_Lambda_z (individual mice) was 3.378 and 2.5225 and 1.5506 and 3.1126 and 2.8768 and 2.157 and 2.4798 and 2.4866 and the Tlast (individual mice) was 8 and 12. The Cmax_D (individual mice, dose-normalised, in µg/mL) was 0.0004 and 418 and 551 and 362 and 450 and 677 and 482, the Lambda_z (individual mice, non-compartmental analysis) was 0.2052 and 0.2748 and 0.447 and 0.2227 and 0.2409 and 0.3213 and 0.2795 and 0.2788 and the MRTINF_obs (individual mice, in h) was 0.5462 and 0.5198 and 0.3158 and 0.5092 and 0.478 and 0.5457 and 0.6241 and 0.624. For the same compound, the MRTINF_pred (individual mice, in h) was 0.5459 and 0.518 and 0.3158 and 0.5089 and 0.478 and 0.5456 and 0.623 and 0.624, the MRTlast (individual mice, in h) was 0.4115 and 0.4154 and 0.3055 and 0.4025 and 0.4187 and 0.4653 and 0.4869 and 0.4822 and the Tmax (individual mice, in h) was 0.083.
